Tests used:
[1] = tested on: Pre-OLs from Nkx2.1-GFP+ sorted cultures at stage VI; assay: Cell cycle analysis with BrdU (flow cytometry); type: cell-based, human
Description: BrdU cell cycle analysis was performed according to the manufacturer's protocol (BD Biosciences). For a detailed protocol, see Supplemental Experimental Procedures.
Pre-OLs from Nkx2.1-GFP+ sorted cultures at stage VI day 7 and day 21 were pulsed with BrdU for 1 hour. Cells were then treated with DNAse I for 45 minutes then collected using accutase (Life Technologies). Collected cells were fixed and permeabilized and stained with anti-BrdU conjugated with APC for 30 minutes at 4° C. Cells were washed and stained with 7-AAD. Cells were then analyzed on LSR-Fortessa (BD Biosciences). Unpulsed cells and pulsed cells without anti-BrdU staining served as a negative control.

[2] = tested on: rat retinal ganglion cells (RGCs) and Nkx2.1-GFP+ sorted OPCs; assay: Co-culture and myelination assay with rat RGC and hESC-derived OPCs; type: cell-based, rat; human
From the text: Retinae were dissected from P6 Sprague-Dawley rat pups (AEC #1121/2011/M). RGCs were purified according to the published immunopanning protocol (Deliyanti and Wilkinson-Berka, 2015; Watkins et al., 2008). Details of the RGC preparation are described in Supplemental Experimental Procedure. The RGC growth medium was changed every third day and cultures were maintained for 9 days. Pre-OLs from Nkx2.1-GFP+ cells at stage VI day 10, were FACS sorted according to O4 antibody labeling. O4+ sorted cells were then co-cultured with RGCs at a density of 20,000/well under 3 different conditions: T3 with 0.01% ethanol, 10 ng/mL DITPA, and 40 ng/mL T3 with DITPA in myelination medium (see Supplemental Experimental Procedure). The medium was changed every 3 days and all co-cultures were fixed after 7 days, followed by immunocytochemistry. Cells were stained with a monoclonal rat anti-mCherry (Life Technologies, M11217, 1:1,000); monoclonal mouse anti-NF-200 (Sigma-Aldrich, N0142, 1:200); and polyclonal rabbit anti-MBP (Millipore, AB980, 1:200). Followed by incubation of appropriate Alexa Fluor-labeled secondary antibodies (Life technologies).
In RGC-OPC co-cultures, myelin segments were counted manually. 10 fields (×20 objective) were randomly selected and captured from each coverslip with a confocal microscope (Nikon A1 inverted). For representative images, 10 z-stack images (0.25 μm intervals) were captured, analysed and processed for 3D volume rendering by Imaris version 7.6.4. OLs were scored according to their morphology and defined as either “resting” (processes not touching axons); “contacting” (processes touching axons but not wrapping); and “ensheathing” (processes aligned with and wrapping axons). A myelination index (i.e. axons myelinated) was calculated by: the number of MBP+ membrane, ensheathing the NF200+ axons/the total number of NF200+ axons.
The dissected retinae were digested using papain dissociation system according to the manufacturer's protocol (Worthington). […]

[3] = tested on: Pre-OLs from Nkx2.1-GFP+ sorted cultures at stage VI, day 21; assay: MTT-based cytotoxicity assay under Bosutinib MCT8 blockade; type: cell-based, human; conditions: Bosutinib with 10 ng/mL DITPA, 48 hours
Description: Pre-OLs from Nkx2.1-GFP+ sorted cultures at stage VI, day 21 were treated with the pharmacological inhibitor of MCT8, bosutinib (LC Laboratories, B-1788, reconstituted in dimethyl sulfoxide, [DMSO]) at different concentrations (1 ng/mL, 10 ng/mL and 100 ng/mL) with co-administration of 10 ng/mL DITPA. An MTT assay and flow cytometry were then performed on the cells stained for DAPI after 48 hours of treatment, to analyze DAPI+ dead cells.

[4] = tested on: rat RGCs and slc16a2 down-regulated OLs from Nkx2.1-GFP+ sorted cells; assay: Co-culture myelination assay with slc16a2 down-regulated OLs; type: cell-based, rat; human; conditions: slc16a2 down-regulated OLs co-cultured with rat RGCs for 7 days
From the text: Retinae were dissected from P6 Sprague-Dawley rat pups (AEC #1121/2011/M). RGCs were purified according to the published immunopanning protocol (Deliyanti and Wilkinson-Berka, 2015; Watkins et al., 2008). Details of the RGC preparation are described in Supplemental Experimental Procedure. The RGC growth medium was changed every third day and cultures were maintained for 9 days. Pre-OLs from Nkx2.1-GFP+ cells at stage VI day 10, were FACS sorted according to O4 antibody labeling. O4+ sorted cells were then co-cultured with RGCs at a density of 20,000/well under 3 different conditions: T3 with 0.01% ethanol, 10 ng/mL DITPA, and 40 ng/mL T3 with DITPA in myelination medium (see Supplemental Experimental Procedure). […]
For quantification of myelination in vitro following knockdown of slc16a2, at least nine fields (×20 objective) were randomly selected and captured from each coverslip with a confocal microscope (Nikon A1 inverted). A myelination index (%) by mCherry+ cells (i.e. axons myelinated by mCherry+ cells) was calculated by: the number of mCherry+/MBP+ membrane, ensheathing the NF200+ axons/the total number of NF200+ axons. Furthermore, the viable ensheathing mCherry+/MBP+ OLs and mature mCherry+ OLs according to their morphology with multiple processes and membranous sheaths were counted and their % calculated.

O=C(O)CCc1cc(I)c(Oc2ccc(O)cc2)c(I)c1 [DITPA, 3,5-Diiodothyropropionic acid]
cell cycle exit ([1]; compared with T3): potentiates cell cycle exit faster than T3 | numbers of cells in S phase ([1]; day 7, compared with T3 alone): significant reduction | percentage of myelination (number of myelinated axons/total number of axons) ([2]; 7 days co-culture, 10 ng/mL DITPA, compared with T3 alone): significantly enhanced | contacting or ensheathing MBP+ OLs ([2]; 7 days co-culture, 10 ng/mL DITPA, versus T3 alone): more | myelination of rat retinal ganglion cells ([2]; FIG. 6): Depicts an experiment which shows that DITPA promotes the myelination of rat | survival rates (MTT assay) [3]: increased survival rates | mCherry+/MBP+ myelinating OLs and mCherry+/MBP+ myelin segments [4]: found

Reference: patent US10640748B2, “Oligodendroglial cell culturing methods and in methods for treating neurodegenerative disorders by using thyroid hormones or analogues” (NeuOrphan Pty Ltd, priority 2014, dated 2020)
